Data as given in patent US20150010928A1, “MEANS AND METHODS FOR ASSESSING AN ENDOCRINE DISEASE OR DISORDER” (priority 2012, published 2015).
Marks after values point to notes of the source that are not given here.

Tested on: male rats
Test: Plasma metabolite profiling (GC-MS, LC-MS, SPE-LC-MS) in male rats dosed once daily over 28 days (OECD 407)
Assay type: in vivo, rat
Design: key to erythro-Sphingoside (d18:1) / Tricosanoic acid (C23:0) / beta-Sitosterol / Tryptophan: ratio of treated group mean to untreated control group mean
Details: for Testosterone: Table 11a
Description: Each dose group in the studies consisted of five rats per sex. Additional groups of each 5 male and female animals served as controls. […] All animals of the animal population were kept under the same constant temperature (20-24±3° C.) and the same constant humidity (30-70%). The animals of the animal population were fed ad libitum. The food to be used was essentially free of chemical or microbial contaminants. Drinking water was also offered ad libitum. Accordingly, the water was free of chemical and microbial contaminants as laid down in the European Drinking Water Directive 98/83/EG. The illumination period was 12 hours light followed by 12 hours darkness (12 hours light, from 6:00 to 18:00, and 12 hours darkness, from 18:00 to 6:00). […] The test substances (compounds) in the Tables 1 to 17 below were dosed and administered as described in the Table 18.
In the morning of day 7, 14, and 28, blood was taken from the retroorbital venous plexus from fasted anaesthetized animals. From each animal, 1 ml of blood was collected with EDTA as anticoagulant. The samples were centrifuged for generation of plasma. All plasma samples were covered with a N2 atmosphere and then stored at −80° C. until analysis.
For mass spectrometry-based metabolite profiling analyses plasma samples were extracted and a polar and a non-polar (lipid) fraction was obtained. For GC-MS analysis, the non-polar fraction was treated with methanol under acidic conditions to yield the fatty acid methyl esters. Both fractions were further derivatised with O-methyl-hydroxyamine hydrochloride and pyridine to convert Oxogroups to O-methyloximes and subsequently with a silylating agent before analysis. In LC-MS analysis, both fractions were reconstituted in appropriate solvent mixtures. HPLC was performed by gradient elution on reversed phase separation columns. Mass spectrometric detection which allows target and high sensitivity MRM (Multiple Reaction Monitoring) profiling in parallel to a full screen analysis was applied as described in WO2003073464.
Steroids and their metabolites were measured by online SPE-LC-MS (Solid phase extraction-LC-MS).
Following comprehensive analytical validation steps, the data for each analyte were normalized against data from pool samples. These samples were run in parallel through the whole process to account for process variability. The significance of treatment group values specific for sex, treatmentduration and metabolite was determined by comparing means of the treated groups to the means of the respective untreated control groups using WELCH-test and quantified with treatment ratios versus control and p-values.
The identification of the most important biomarkers per toxicity pattern was done by a ranking of the analytes in the tables below. Therefore the metabolic changes in reference treatments of a given pattern (shown in the table) were compared with changes of the same metabolite in other unrelated treatments. […] The maximum absolute value of the respective TVALUE was taken to indicate the most important metabolite for the pattern.

[1] = male rats, plasma, high dose, day 7
[2] = male rats, plasma, high dose, day 14
[3] = male rats, plasma, high dose, day 28

## C=CC1(C)OC(=O)N(c2cc(Cl)cc(Cl)c2)C1=O (stereo not shown) [Vinclozolin]
m7, high dose
  Testosterone: 1.41^
m14, high dose
  Testosterone: 2.44 *
m28, high dose
  Testosterone: 1.09^

## CC(=O)O[C@]1(C(C)=O)CC[C@H]2[C@@H]3C[C@H](C)C4=CC(=O)CC[C@]4(C)[C@H]3CC[C@@]21C [Medroxyprogesterone acetat]
[1]
  Alanine, ratio versus control: 0.73 *
  Androstenedione, ratio versus control: 1.68
  Cholesterol, ratio versus control: 0.9
  Glycine, ratio versus control: 1.05 *
  Heptadecanoic acid (C17:0), ratio versus control: 0.98
  Testosterone, ratio versus control: 2
  Threonine, ratio versus control: 0.82 *
  Uric acid, ratio versus control: 0.6 *
  alpha-Tocopherol, ratio versus control: 0.82 *
[2]
  Alanine, ratio versus control: 0.97
  Androstenedione, ratio versus control: 0.28 *
  Cholesterol, ratio versus control: 0.69 *
  Glycine, ratio versus control: 1.06
  Heptadecanoic acid (C17:0), ratio versus control: 0.92
  Testosterone, ratio versus control: 0.22 *
  Threonine, ratio versus control: 1
  Uric acid, ratio versus control: 1.07
  alpha-Tocopherol, ratio versus control: 0.82 *
[3]
  Androstenedione, ratio versus control: 0.1 *
  Testosterone, ratio versus control: 0.08 *

## CCNC(=O)[C@@H]1CCCN1C(=O)[C@H](CCCNC(=N)N)NC(=O)[C@H](CC(C)C)NC(=O)[C@@H](COC(C)(C)C)NC(=O)[C@H](Cc1ccc(O)cc1)NC(=O)[C@H](CO)NC(=O)[C@H](Cc1c[nH]c2ccccc12)NC(=O)[C@H](Cc1cnc[nH]1)NC(=O)[C@@H]1CCC(=O)N1 [Buserelin acetate a.c., Buserelin acetate]
[1]
  Alanine, ratio versus control: 0.67 *
  Androstenedione, ratio versus control: 0.17 *
  Cholesterol, ratio versus control: 0.9 *
  Glycine, ratio versus control: 0.83 *
  Heptadecanoic acid (C17:0), ratio versus control: 0.81 *
  Testosterone, ratio versus control: 0.11 *
  Threonine, ratio versus control: 1.01 *
  Uric acid, ratio versus control: 0.59 *
  alpha-Tocopherol, ratio versus control: 0.88 *
[2]
  Alanine, ratio versus control: 0.74 *
  Androstenedione, ratio versus control: 0.5 *
  Cholesterol, ratio versus control: 0.84 *
  Glycine, ratio versus control: 0.91^
  Heptadecanoic acid (C17:0), ratio versus control: 0.94 *
  Testosterone, ratio versus control: 0.19 *
  Threonine, ratio versus control: 0.92 *
  Uric acid, ratio versus control: 076 *
  alpha-Tocopherol, ratio versus control: 0.93 *
[3]
  Alanine, ratio versus control: 0.78^
  Androstenedione, ratio versus control: 0.35 *
  Cholesterol, ratio versus control: 0.91^
  Glycine, ratio versus control: 0.91 *
  Heptadecanoic acid (C17:0), ratio versus control: 0.91 *
  Testosterone, ratio versus control: 0.08 *
  Threonine, ratio versus control: 1.01^
  Uric acid, ratio versus control: 0.85 *
  alpha-Tocopherol, ratio versus control: 1.03^

## Cn1cc[nH]c1=S [Methimazole]
m7, high dose, Table 10a
  3-O-Methylsphingosine (d18:1): 3.59 *
  5-O-Methylsphingosine (d18:1): 3.41 *
  Cysteine: 0.74^
  Lignoceric acid (C24:0): 2.12 *
  Nervonic acid (C24:cis[15]1): 2.59 *
  Oleic acid (C18:cis[9]1): 0.95^
  Stearic acid (C18:0): 1.34 *
  alpha-Tocopherol: 1.76 *
  erythro-Sphingoside (d18:1): 2.91 *
  threo-Sphingosine (d18:1): 2.91 *
m7, high dose, Table 10b
  Oleic acid (C18:cis[9]1): 0.95^
  Thyroxine (T4): 0.11 *
  trans-4-Hydroxyproline: 0.85 *
m14, high dose, Table 10a
  3-O-Methylsphingosine (d18:1): 3.98 *
  5-O-Methylsphingosine (d18:1): 4.75 *
  Cysteine: 1.25
  Lignoceric acid (C24:0): 2.82 *
  Nervonic acid (C24:cis[15]1): 3 *
  Oleic acid (C18:cis[9]1): 0.97
  Stearic acid (C18:0): 1.4 *
  alpha-Tocopherol: 2.66 *
  erythro-Sphingoside (d18:1): 3.71 *
  threo-Sphingosine (d18:1): 3.72 *
m14, high dose, Table 10b
  Oleic acid (C18:cis[9]1): 0.97^
  Thyroxine (T4): 0.04 *
  trans-4-Hydroxyproline: 0.76 *
m28, high dose, Table 10a
  3-O-Methylsphingosine (d18:1): 4.59 *
  5-O-Methylsphingosine (d18:1): 4.37 *
  Cysteine: 0.92^
  Lignoceric acid (C24:0): 2.16 *
  Nervonic acid (C24:cis[15]1): 2.23 *
  Oleic acid (C18:cis[9]1): 0.87^
  alpha-Tocopherol: 2.18 *
  erythro-Sphingoside (d18:1): 3.44 *
  threo-Sphingosine (d18:1): 4.28 *
m28, high dose, Table 10b
  Oleic acid (C18:cis[9]1): 0.87 *
  Phosphatidylcholine (C16:0, C16:0): 0.92 *
  Thyroxine (T4): 0.02 *
  trans-4-Hydroxyproline: 0.92^
[1]
  1,5-Anhydrosorbitol, ratio versus control: 0.81 *
  3-O-Methylsphingosine (d18:1), ratio versus control: 3.59 *
  5-O-Methylsphingosine (d18:1), ratio versus control: 3.41 *
  18-Hydroxy-11-deoxycorticosterone, ratio versus control: 0.38 *
  Behenic acid (C22:0), ratio versus control: 2.19 *
  Ceramide (d18:1, C24:0), ratio versus control: 2.58 *
  Ceramide (d18:1, C24:1), ratio versus control: 1.88 *
  Coenzyme Q9, ratio versus control: 1.23
  Corticosterone, ratio versus control: 0.38 *
  Docosapentaenoic acid (C22:cis[7, 10, 13, 16, 19]5), ratio versus control: 1.16
  Glucose, ratio versus control: 1.02
  Glycerol, polar fraction, ratio versus control: 0.74 *
  Isoleucine, ratio versus control: 0.98
  Lignoceric acid (C24:0), ratio versus control: 2.12 *
  Linolenic acid (C18:cis[9, 12, 15]3), ratio versus control: 0.7 *
  Nervonic acid (C24:cis[15]1), ratio versus control: 2.59 *
  Phytosphingosine, ratio versus control: 2 *
  Sphingomyelin (d18:1, C16:0), ratio versus control: 2.24 *
  Threonic acid, ratio versus control: 0.72 *
  Tricosanoic acid (C23:0), ratio versus control: 1.93 *
  alpha-Tocopherol, ratio versus control: 2.26 *
  erythro-Sphingosine (d18:1), ratio versus control: 2.91 *
  threo-Sphingosine (d18:1), ratio versus control: 2.91 *
  trans-4-Hydroxyproline, ratio versus control: 0.85 *
[2]
  1,5-Anhydrosorbitol, ratio versus control: 0.98
  3-O-Methylsphingosine (d18:1), ratio versus control: 3.98 *
  5-O-Methylsphingosine (d18:1), ratio versus control: 4.75 *
  18-Hydroxy-11-deoxycorticosterone, ratio versus control: 0.82
  Behenic acid (C22:0), ratio versus control: 3.12 *
  Ceramide (d18:1, C24:0), ratio versus control: 2.83 *
  Ceramide (d18:1, C24:1), ratio versus control: 2.41 *
  Choline plasmalogen (C18, C20:4), ratio versus control: 1.45 *
  Coenzyme Q9, ratio versus control: 1.54 *
  Corticosterone, ratio versus control: 1.47 *
  Docosapentaenoic acid (C22:cis[7, 10, 13, 16, 19]5), ratio versus control: 1.17
  Glucose, ratio versus control: 1.11
  Glycerol, polar fraction, ratio versus control: 0.64 *
  Isoleucine, ratio versus control: 1.18 *
  Lignoceric acid (C24:0), ratio versus control: 2.82 *
  Linolenic acid (C18:cis[9, 12, 15]3), ratio versus control: 0.8 *
  Nervonic acid (C24:cis[15]1), ratio versus control: 3 *
  Phosphatidylcholine (C18:0, C22:6), ratio versus control: 0.97
  Phytosphingosine, ratio versus control: 3.12 *
  Sphingomyelin (d18:1, C16:0), ratio versus control: 2.27 *
  Sphingomyelin (d18:1, C24:0), ratio versus control: 1.64 *
  Threonic acid, ratio versus control: 0.69 *
  Tricosanoic acid (C23:0), ratio versus control: 2.69 *
  alpha-Tocopherol, ratio versus control: 3.65 *
  erythro-Sphingosine (d18:1), ratio versus control: 3.71 *
  threo-Sphingosine (d18:1), ratio versus control: 3.72 *
  trans-4-Hydroxyproline, ratio versus control: 0.76 *
[3]
  1,5-Anhydrosorbitol, ratio versus control: 1.06
  3-O-Methylsphingosine (d18:1), ratio versus control: 4.59 *
  5-O-Methylsphingosine (d18:1), ratio versus control: 4.37 *
  18-Hydroxy-11-deoxycorticosterone, ratio versus control: 0.24 *
  Behenic acid (C22:0), ratio versus control: 3.13 *
  Ceramide (d18:1, C24:0), ratio versus control: 2.72 *
  Ceramide (d18:1, C24:1), ratio versus control: 1.89 *
  Coenzyme Q9, ratio versus control: 2.14 *
  Corticosterone, ratio versus control: 0.63
  Glycerol, polar fraction, ratio versus control: 0.71 *
  Isoleucine, ratio versus control: 1.38 *
  Lignoceric acid (C24:0), ratio versus control: 2.16 *
  Linolenic acid (C18:cis[9, 12, 15]3), ratio versus control: 0.7 *
  Nervonic acid (C24:cis[15]1), ratio versus control: 2.23 *
  Phosphatidylcholine (C18:0, C22:6), ratio versus control: 1.22 *
  Phytosphingosine, ratio versus control: 3.11 *
  Sphingomyelin (d18:1, C16:0), ratio versus control: 1.92 *
  Sphingomyelin (d18:1, C24:0), ratio versus control: 1.41 *
  Threonic acid, ratio versus control: 0.69 *
  Tricosanoic acid (C23:0), ratio versus control: 2.5 *
  alpha-Tocopherol, ratio versus control: 2.04 *
  erythro-Sphingosine (d18:1), ratio versus control: 3.44 *
  threo-Sphingosine (d18:1), ratio versus control: 4.28 *
  trans-4-Hydroxyproline, ratio versus control: 0.92 *
rat, in vivo
  Docosapentaenoic acid (C22:cis[7, 10, 13, 16, 19]5), ratio versus control: 1.24 *
  Glucose, ratio versus control: 1.06 *
  Phosphatidylcholine (C18:0, C22:6), ratio versus control: 1.17 *
  Sphingomyelin (d18:1, C24:0), ratio versus control: 1.35 *
  Stearic acid (C18:0): 1.16 *
